Measured values as given in US8933103B2, “Pyridone derivatives” (Daiichi Sankyo Company, Limited, priority 2012, dated 2015).

Assays:
[1] = target: T1, phosphorylated Axl (pAxl Y702) in NCI-H1299 cells (Homo sapiens, UniProt P30530); assay: Intracellular Axl Phosphorylation Inhibitory Activity (pAxl, NCI-H1299 cells); type: cell-based; settings: 1 h compound incubation, GAS6 stimulation 10 minutes, pAxl (Y702) level
T1 construct: endogenous in cells; host or cells: NCI-H1299
T1 sequence (P30530 26-894): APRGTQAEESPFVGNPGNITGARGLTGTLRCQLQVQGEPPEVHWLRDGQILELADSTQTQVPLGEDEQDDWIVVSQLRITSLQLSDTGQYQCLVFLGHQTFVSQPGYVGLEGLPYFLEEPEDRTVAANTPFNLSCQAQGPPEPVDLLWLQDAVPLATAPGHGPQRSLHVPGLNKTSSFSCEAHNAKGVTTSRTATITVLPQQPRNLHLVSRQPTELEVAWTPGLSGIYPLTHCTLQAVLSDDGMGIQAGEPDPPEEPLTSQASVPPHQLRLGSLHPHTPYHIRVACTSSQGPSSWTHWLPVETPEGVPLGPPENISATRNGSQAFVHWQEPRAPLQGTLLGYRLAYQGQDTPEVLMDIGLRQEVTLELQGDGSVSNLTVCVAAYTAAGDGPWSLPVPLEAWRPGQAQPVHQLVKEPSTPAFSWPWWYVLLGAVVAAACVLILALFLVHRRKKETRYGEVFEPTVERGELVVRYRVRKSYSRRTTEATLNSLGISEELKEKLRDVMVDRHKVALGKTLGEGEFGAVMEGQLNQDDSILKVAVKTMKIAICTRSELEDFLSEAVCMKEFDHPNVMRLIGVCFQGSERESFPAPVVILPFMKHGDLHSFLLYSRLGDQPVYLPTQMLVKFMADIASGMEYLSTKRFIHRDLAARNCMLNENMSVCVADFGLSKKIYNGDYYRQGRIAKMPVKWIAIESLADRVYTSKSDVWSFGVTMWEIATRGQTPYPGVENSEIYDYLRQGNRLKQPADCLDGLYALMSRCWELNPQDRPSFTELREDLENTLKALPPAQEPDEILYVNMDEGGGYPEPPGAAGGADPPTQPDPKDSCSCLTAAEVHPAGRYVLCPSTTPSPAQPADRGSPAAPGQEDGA
Description: A phosphorylated Axl (hereinafter pAxl) inhibitory test was performed using the human non-small-cell lung cancer-derived cell strain NCI-H1299.
On the following day, the medium was removed, 100 μl of fresh medium were added, and the cells were cultured at 37° C. in the presence of 5% CO2 for one day.
The test compound was dissolved in DMSO and diluted with medium to prepare a sample solution (DMSO concentration: 2%). Twenty-five microliters of medium or sample-added medium was added to each well (DMSO concentration: 0.4%), and the plate was incubated at 37° C. in the presence of 5% CO2 for one hour.
After stirring, the plate was incubated at 37° C. in the presence of 5% CO2 for 10 minutes.
The supernatant was discarded, and 0.1 ml of a 37% formalin solution diluted to 4% with phosphate buffer (PBS) (hereinafter “4% formalin solution”) was added to each well. The plate was allowed to stand at room temperature for 10 minutes.
Next, the 4% formalin solution was discarded, and 0.2 ml of a solution of Triton X-100 diluted to 0.1% with PBS (hereinafter “wash buffer”) was added. The wash buffer was discarded using a decanter, and excess moisture in the plate was removed on a paper towel.
Subsequently, […] NaN3 and H2O2 were added to the wash buffer at 0.1% (hereinafter “quenching buffer”), and 0.1 ml of the quenching buffer was added to each well. The plate was allowed to stand at room temperature for 15 minutes.
The quenching buffer was discarded, and 0.2 ml of wash buffer was added. The wash buffer was discarded using a decanter, and excess moisture in the plate was removed on a paper towel.
Skim milk (Nacalai Tesque) was added to the wash buffer at a final concentration of 5% (hereinafter “blocking buffer”), and 0.25 ml of the blocking buffer was added to each well. The plate was allowed to stand at room temperature for one hour.
After light stirring, the plate was incubated for 20 minutes. Luminescence was then measured by ARVO sx (PerkinElmer), and the pAxl (Y702) level was measured.
pAxl Inhibitory activity was determined by the following formula. Inhibition %=100−(A−B)×100/(T−B)
A: Measurement of the test compound
T: Luminescence value of the reaction solution with a compound not added

[2] = target: T2, AXL (fusion protein of amino acids 464-885 of the intracellular domain of human AXL with glutathione transferase) (Homo sapiens, UniProt P30530); assay: Cell-Free Axl Kinase Inhibitory Activity
T2 sequence (P30530 464-885 isoform P30530-2): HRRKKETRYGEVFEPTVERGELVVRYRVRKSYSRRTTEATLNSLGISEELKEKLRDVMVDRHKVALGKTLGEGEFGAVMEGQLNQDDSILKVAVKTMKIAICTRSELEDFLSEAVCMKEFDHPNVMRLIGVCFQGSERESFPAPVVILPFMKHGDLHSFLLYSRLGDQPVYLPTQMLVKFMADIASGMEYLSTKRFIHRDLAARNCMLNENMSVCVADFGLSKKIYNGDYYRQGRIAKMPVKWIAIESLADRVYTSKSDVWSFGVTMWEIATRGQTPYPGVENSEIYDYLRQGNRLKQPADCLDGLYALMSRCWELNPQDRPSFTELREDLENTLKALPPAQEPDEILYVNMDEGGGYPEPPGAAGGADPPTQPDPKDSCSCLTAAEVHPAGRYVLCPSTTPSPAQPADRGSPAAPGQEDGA

IC50 [1]	IC50 [2]	Structure (SMILES)
100 to 500 nM	1 to 10 nM	COc1ccc(-c2cnc(N)c(-c3ccc(NC(=O)c4cn(CCOC5CCCCO5)cc(-c5ccc(F)cc5)c4=O)cc3)c2)cc1OC (racemic) [Example 6, N-{4-[2-Amino-5-(3,4-dimethoxyphenyl)pyridin-3-yl]phenyl}-5-(4-fluorophenyl)-4-oxo-1-[2-(tetrahydro-2H-pyran-2-yloxy)ethyl]-1,4-dihydropyridine-3-carboxamide]
50 to 100 nM	1 to 10 nM	COc1ccc(-c2cnc(N)c(-c3ccc(NC(=O)c4c[nH]cc(-c5ccc(F)cc5)c4=O)cc3)c2)cc1OC [Example 1, N-{4-[2-Amino-5-(3,4-dimethoxyphenyl)pyridin-3-yl]phenyl}-5-(4-fluorophenyl)-4-oxo-1,4-dihydropyridine-3-carboxamide]
50 to 100 nM	1 to 10 nM	COc1ccc(-c2cnc(N)c(-c3ccc(NC(=O)c4cn(CCO)cc(-c5ccc(F)cc5)c4=O)cc3)c2)cc1OC [Example 7, N-{4-[2-Amino-5-(3,4-dimethoxyphenyl)pyridin-3-yl]phenyl}-5-(4-fluorophenyl)-1-(2-hydroxyethyl)-4-oxo-1,4-dihydropyridine-3-carboxamide]
50 to 100 nM	1 to 10 nM	COc1ccc(-c2cnc(N)c(-c3ccc(NC(=O)c4cn(C[C@H]5COCCO5)cc(-c5ccc(F)cc5)c4=O)cc3)c2)cc1OC [Example 14, N-{4-[2-Amino-5-(3,4-dimethoxyphenyl)pyridin-3-yl]phenyl}-1-[(2S)-1,4-dioxan-2-ylmethyl]-5-(4-fluorophenyl)-4-oxo-1,4-dihydropyridine-3-carboxamide]
50 to 100 nM	1 to 10 nM	CCn1cc(C(=O)Nc2ccc(-c3cc(-c4ccc(OC)c(OC)c4)cnc3N)cc2)c(=O)c(-c2ccccc2)c1 [Example 18, N-{4-[2-Amino-5-(3,4-dimethoxyphenyl)pyridin-3-yl]phenyl}-1-ethyl-4-oxo-5-phenyl-1,4-dihydropyridine-3-carboxamide]
50 to 100 nM	1 to 10 nM	COc1ccc(-c2cnc(N)c(-c3ccc(NC(=O)c4cn(CC(F)(F)F)cc(-c5cccc(F)c5)c4=O)cc3)c2)cc1OC [Example 22, N-{4-[2-Amino-5-(3,4-dimethoxyphenyl)pyridin-3-yl]phenyl}-5-(3-fluorophenyl)-4-oxo-1-(2,2,2-trifluoroethyl)-1,4-dihydropyridine-3-carboxamide]
50 to 100 nM	1 to 10 nM	COc1ccc(-c2cnc(N)c(-c3ccc(NC(=O)c4cn(CC(F)(F)F)cc(-c5ccc(F)cc5)c4=O)cc3C)c2)cc1OC [Example 30, N-{4-[2-Amino-5-(3,4-dimethoxyphenyl)pyridin-3-yl]-3-methylphenyl}-5-(4-fluorophenyl)-4-oxo-1-(2,2,2-trifluoroethyl)-1,4-dihydropyridine-3-carboxamide]
100 to 500 nM	1 to 10 nM	Nc1ncc(-c2ccccc2)cc1-c1ccc(NC(=O)c2cn(CC(F)(F)F)cc(-c3ccc(F)cc3)c2=O)cc1 [Example 31, N-[4-(2-Amino-5-phenylpyridin-3-yl)phenyl]-5-(4-fluorophenyl)-4-oxo-1-(2,2,2-trifluoroethyl)-1,4-dihydropyridine-3-carboxamide]
100 to 500 nM	10 to 20 nM	COc1ccc(-c2cnc(N)c(-c3ccc(NC(=O)c4cn(CC(F)(F)F)cc(-c5ccc(F)cc5)c4=O)cc3)c2)cc1 [Example 32, N-{4-[2-Amino-5-(4-methoxyphenyl)pyridin-3-yl]phenyl}-5-(4-fluorophenyl)-4-oxo-1-(2,2,2-trifluoroethyl)-1,4-dihydropyridine-3-carboxamide]
50 to 100 nM	1 to 10 nM	COc1cccc(-c2cnc(N)c(-c3ccc(NC(=O)c4cn(CC(F)(F)F)cc(-c5ccc(F)cc5)c4=O)cc3)c2)c1 [Example 33, N-{4-[2-Amino-5-(3-methoxyphenyl)pyridin-3-yl]phenyl}-5-(4-fluorophenyl)-4-oxo-1-(2,2,2-trifluoroethyl)-1,4-dihydropyridine-3-carboxamide]
100 to 500 nM	10 to 20 nM	Cc1ccc(-c2cnc(N)c(-c3ccc(NC(=O)c4cn(CC(F)(F)F)cc(-c5ccc(F)cc5)c4=O)cc3)c2)cc1 [Example 35, N-{4-[2-Amino-5-(4-methylphenyl)pyridin-3-yl]phenyl}-5-(4-fluorophenyl)-4-oxo-1-(2,2,2-trifluoroethyl)-1,4-dihydropyridine-3-carboxamide]
100 to 500 nM	10 to 20 nM	Nc1ncc(-c2cccc(Cl)c2)cc1-c1ccc(NC(=O)c2cn(CC(F)(F)F)cc(-c3ccc(F)cc3)c2=O)cc1 [Example 36, N-{4-[2-Amino-5-(3-chlorophenyl)pyridin-3-yl]phenyl}-5-(4-fluorophenyl)-4-oxo-1-(2,2,2-trifluoroethyl)-1,4-dihydropyridine-3-carboxamide]
100 to 500 nM	10 to 20 nM	CC(C)(O)Cn1cc(C(=O)Nc2ccc(-c3cc(-c4cnn(C[C@H]5COCCO5)c4)cnc3N)cc2)c(=O)c(-c2ccc(F)cc2)c1 [Example 68, N-[4-(2-Amino-5-{1-[(2S)-1,4-dioxan-2-ylmethyl]-1H-pyrazol-4-yl}pyridin-3-yl)phenyl]-5-(4-fluorophenyl)-1-(2-hydroxy-2-methylpropyl)-4-oxo-1,4-dihydropyridine-3-carboxamide]
100 to 500 nM	1 to 10 nM	CCN(CC)CCn1cc(C(=O)Nc2ccc(-c3cc(-c4cnn(C[C@H]5COCCO5)c4)cnc3N)cc2)c(=O)c(-c2ccc(F)cc2)c1 [Example 69, N-[4-(2-Amino-5-{1-[(2S)-1,4-dioxan-2-ylmethyl]-1H-pyrazol-4-yl}pyridin-3-yl)phenyl]-1-[2-(diethylamino)ethyl]-5-(4-fluorophenyl)-4-oxo-1,4-dihydropyridine-3-carboxamide]
50 to 100 nM	1 to 10 nM	COC1CN(C(=O)c2cn(Cc3ccc(F)cc3)cc(C(=O)Nc3ccc(-c4cc(-c5cnn(C[C@H]6COCCO6)c5)cnc4N)cc3)c2=O)C1 [Example 72, N-[4-(2-Amino-5-{1-[(2S)-1,4-dioxan-2-ylmethyl]-1H-pyrazol-4-yl}pyridin-3-yl)phenyl]-1-(4-fluorobenzyl)-5-[(3-methoxyazetidin-1-yl)carbonyl]-4-oxo-1,4-dihydropyridine-3-carboxamide]
50 to 100 nM	1 to 10 nM	CN1CC=C(c2cnc(N)c(-c3ccc(NC(=O)c4cn(CC(F)(F)F)cc(-c5ccc(F)cc5)c4=O)cc3)c2)CC1 [Example 79, N-[4-(6-Amino-1′-methyl-1′,2′,3′,6′-tetrahydro-3,4′-bipyridin-5-yl)phenyl]-5-(4-fluorophenyl)-4-oxo-1-(2,2,2-trifluoroethyl)-1,4-dihydropyridine-3-carboxamide]
